Results as given in the NIST ThermoML archive (doi:10.1021/acs.jced.8b00438).
Numbers after ± are expanded uncertainties.

Assay: xn = mol fraction of the nth substance listed
Details: 100 kPa, Liquid; for viscosity: Falling or rolling sphere viscometry; for mass density: Vibrating tube method

C1CCC(C2CCCCC2)CC1 [1,1'-bicyclohexyl] + CCCCCCCCCCCC
Details	mass density [kg/m3]	viscosity [mPa·s]
293.15 K, x2 = 0	886.05 ± 0.89	4.003 ± 0.085
293.15 K, x2 = 0.1055	869.17 ± 0.88	3.406 ± 0.073
293.15 K, x2 = 0.2016	854.56 ± 0.86	3 ± 0.064
293.15 K, x2 = 0.3019	839.7 ± 0.85	2.637 ± 0.056
293.15 K, x2 = 0.398	825.91 ± 0.83	2.369 ± 0.05
293.15 K, x2 = 0.5006	811.71 ± 0.82	2.166 ± 0.046
293.15 K, x2 = 0.5953	798.95 ± 0.81	1.998 ± 0.043
293.15 K, x2 = 0.6911	786.49 ± 0.8	1.839 ± 0.039
293.15 K, x2 = 0.7985	772.97 ± 0.78	1.697 ± 0.036
293.15 K, x2 = 0.8888	761.97 ± 0.77	1.62 ± 0.034
298.15 K, x2 = 0	882.44 ± 0.89	3.53 ± 0.075
298.15 K, x2 = 0.1055	865.58 ± 0.87	3.025 ± 0.064
298.15 K, x2 = 0.2016	850.98 ± 0.86	2.681 ± 0.057
298.15 K, x2 = 0.3019	836.11 ± 0.84	2.366 ± 0.05
298.15 K, x2 = 0.398	822.33 ± 0.83	2.136 ± 0.045
298.15 K, x2 = 0.5006	808.14 ± 0.82	1.955 ± 0.042
298.15 K, x2 = 0.5953	795.38 ± 0.8	1.811 ± 0.039
298.15 K, x2 = 0.6911	782.91 ± 0.79	1.672 ± 0.036
298.15 K, x2 = 0.7985	769.38 ± 0.78	1.548 ± 0.033
298.15 K, x2 = 0.8888	758.37 ± 0.77	1.466 ± 0.031
303.15 K, x2 = 0	878.84 ± 0.88	3.137 ± 0.067
303.15 K, x2 = 0.1055	861.99 ± 0.87	2.706 ± 0.058
303.15 K, x2 = 0.2016	847.4 ± 0.86	2.411 ± 0.051
303.15 K, x2 = 0.3019	832.52 ± 0.84	2.138 ± 0.046
303.15 K, x2 = 0.398	818.74 ± 0.83	1.938 ± 0.041
303.15 K, x2 = 0.5006	804.55 ± 0.81	1.777 ± 0.038
303.15 K, x2 = 0.5953	791.78 ± 0.8	1.652 ± 0.035
303.15 K, x2 = 0.6911	779.31 ± 0.79	1.529 ± 0.033
303.15 K, x2 = 0.7985	765.77 ± 0.78	1.417 ± 0.03
303.15 K, x2 = 0.8888	754.75 ± 0.77	1.331 ± 0.028
308.15 K, x2 = 0	875.25 ± 0.88	2.81 ± 0.06
308.15 K, x2 = 0.1055	858.41 ± 0.87	2.438 ± 0.052
308.15 K, x2 = 0.2016	843.81 ± 0.85	2.182 ± 0.046
308.15 K, x2 = 0.3019	828.94 ± 0.84	1.943 ± 0.041
308.15 K, x2 = 0.398	815.15 ± 0.82	1.766 ± 0.038
308.15 K, x2 = 0.5006	800.96 ± 0.81	1.624 ± 0.035
308.15 K, x2 = 0.5953	788.19 ± 0.8	1.513 ± 0.032
308.15 K, x2 = 0.6911	775.71 ± 0.79	1.405 ± 0.03
308.15 K, x2 = 0.7985	762.15 ± 0.77	1.305 ± 0.028
308.15 K, x2 = 0.8888	751.13 ± 0.76	1.223 ± 0.026
313.15 K, x2 = 0	871.66 ± 0.88	2.532 ± 0.054
313.15 K, x2 = 0.1055	854.82 ± 0.86	2.209 ± 0.047
313.15 K, x2 = 0.2016	840.23 ± 0.85	1.985 ± 0.042
313.15 K, x2 = 0.3019	825.35 ± 0.83	1.776 ± 0.038
313.15 K, x2 = 0.398	811.56 ± 0.82	1.618 ± 0.034
313.15 K, x2 = 0.5006	797.36 ± 0.81	1.492 ± 0.032
313.15 K, x2 = 0.5953	784.58 ± 0.79	1.393 ± 0.03
313.15 K, x2 = 0.6911	772.09 ± 0.78	1.298 ± 0.028
313.15 K, x2 = 0.7985	758.53 ± 0.77	1.206 ± 0.026
313.15 K, x2 = 0.8888	747.5 ± 0.76	1.131 ± 0.024
318.15 K, x2 = 0	868.08 ± 0.87	2.296 ± 0.049
318.15 K, x2 = 0.1055	851.24 ± 0.86	2.012 ± 0.043
318.15 K, x2 = 0.2016	836.64 ± 0.85	1.815 ± 0.039
318.15 K, x2 = 0.3019	821.76 ± 0.83	1.629 ± 0.035
318.15 K, x2 = 0.398	807.96 ± 0.82	1.489 ± 0.032
318.15 K, x2 = 0.5006	793.76 ± 0.8	1.377 ± 0.029
318.15 K, x2 = 0.5953	780.98 ± 0.79	1.288 ± 0.027
318.15 K, x2 = 0.6911	768.48 ± 0.78	1.203 ± 0.026
318.15 K, x2 = 0.7985	754.91 ± 0.77	1.119 ± 0.024
318.15 K, x2 = 0.8888	743.86 ± 0.76	1.05 ± 0.022
323.15 K, x2 = 0	864.5 ± 0.87	2.092 ± 0.045
323.15 K, x2 = 0.1055	847.66 ± 0.86	1.842 ± 0.039
323.15 K, x2 = 0.2016	833.06 ± 0.84	1.667 ± 0.036
323.15 K, x2 = 0.3019	818.17 ± 0.83	1.501 ± 0.032
323.15 K, x2 = 0.398	804.36 ± 0.81	1.376 ± 0.029
323.15 K, x2 = 0.5006	790.16 ± 0.8	1.275 ± 0.027
323.15 K, x2 = 0.5953	777.36 ± 0.79	1.195 ± 0.025
323.15 K, x2 = 0.6911	764.85 ± 0.78	1.119 ± 0.024
323.15 K, x2 = 0.7985	751.27 ± 0.76	1.041 ± 0.022
323.15 K, x2 = 0.8888	740.21 ± 0.75	0.978 ± 0.021
328.15 K, x2 = 0	860.93 ± 0.87	1.915 ± 0.041
328.15 K, x2 = 0.1055	844.08 ± 0.85	1.693 ± 0.036
328.15 K, x2 = 0.2016	829.47 ± 0.84	1.536 ± 0.033
328.15 K, x2 = 0.3019	814.58 ± 0.82	1.389 ± 0.03
328.15 K, x2 = 0.398	800.76 ± 0.81	1.276 ± 0.027
328.15 K, x2 = 0.5006	786.54 ± 0.8	1.184 ± 0.025
328.15 K, x2 = 0.5953	773.74 ± 0.78	1.112 ± 0.024
328.15 K, x2 = 0.6911	761.22 ± 0.77	1.043 ± 0.022
328.15 K, x2 = 0.7985	747.63 ± 0.76	0.973 ± 0.021
328.15 K, x2 = 0.8888	736.56 ± 0.75	0.914 ± 0.019
333.15 K, x2 = 0	857.35 ± 0.86	1.762 ± 0.038
333.15 K, x2 = 0.1055	840.5 ± 0.85	1.563 ± 0.033
333.15 K, x2 = 0.2016	825.89 ± 0.83	1.423 ± 0.03
333.15 K, x2 = 0.3019	810.98 ± 0.82	1.288 ± 0.027
333.15 K, x2 = 0.398	797.16 ± 0.81	1.186 ± 0.025
333.15 K, x2 = 0.5006	782.93 ± 0.79	1.104 ± 0.024
333.15 K, x2 = 0.5953	770.11 ± 0.78	1.039 ± 0.022
333.15 K, x2 = 0.6911	757.59 ± 0.77	0.976 ± 0.021
333.15 K, x2 = 0.7985	743.98 ± 0.76	0.91 ± 0.019
333.15 K, x2 = 0.8888	732.9 ± 0.75	0.856 ± 0.018
